These results are taken from ChEMBL document CHEMBL1201862, “PubChem BioAssay data set” (2004).

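Where inhibition never reached the appropriate level, the endpoint shown equals the highest concentration tested. Otherwise, values were interpolated linearly from a five-concentration, 48-hour dose response in 96-well plates. Here, GI50 denotes the concentration required for 50% inhibition of growth.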 Activity calls are given as the source filed them. No stated cut-off is given here; in the data, active = GI50 up to about 1.1 µM and inactive = higher.

Test systems include OVCAR-3; SNB-19; HT-29; SK-MEL-28; Malme-3M; RXF 393; A549; HOP-62; ACHN; SF-295; HL-60; SF-268; UACC-62; SK-MEL-2; SW-620; UACC-257; SR; A498.
Assay in all cases: NCI-60 cell line screen, 48 h

With `Cc1ccccc1N(CCC#N)C1=NN(C(=O)CC(=O)Nc2ccc(Cl)cc2)C(c2ccccc2)C1` (configuration not stated), the GI50 with OVCAR-3, with SNB-19, in the assay on HT-29, with SK-MEL-28, in the assay with Malme-3M and in the assay with RXF 393 was > 100 µM (inactive) each time. The GI50 with A549, in the assay on HOP-62, in the assay with ACHN, in the assay with SF-295, in the assay with HL-60 and with SF-268 was > 100 µM (inactive) throughout. In addition, the GI50 in the assay with UACC-62, in the assay with SK-MEL-2, in the assay on SW-620, in the assay on UACC-257 and with SR was > 100 µM (inactive) each time.

For `Cc1cc(O)nc(NNC(C#N)c2ccc([N+](=O)[O-])cc2)n1` (configuration not stated), the GI50 with OVCAR-3 was > 100 µM (inactive); with HT-29 it was > 100 µM (inactive); in the assay with SK-MEL-28 it was > 100 µM (inactive); in the assay on Malme-3M it was 70.1 µM (inactive); with RXF 393, 93.8 µM (inactive); with A549 it was > 100 µM (inactive). Further, the GI50 in the assay with HOP-62 is > 100 µM (inactive); in the assay on ACHN, 74.8 µM (inactive); with SF-295, > 100 µM (inactive); with HL-60 it was 63.4 µM (inactive); in the assay with SF-268 it was > 100 µM (inactive); with UACC-62, > 100 µM (inactive). Further, the GI50 in the assay with SK-MEL-2 is > 100 µM (inactive); with SW-620, 95.3 µM (inactive); in the assay on UACC-257, > 100 µM (inactive); in the assay on SR it was 26.3 µM (inactive).

With `O=C(/C=C/c1cccc([N+](=O)[O-])c1)c1cccnc1`, the GI50 with OVCAR-3 was 27.5 µM (inactive); in the assay with SNB-19 it was > 53.3 µM (inactive); in the assay with HT-29 it was 20.2 µM (inactive); in the assay with SK-MEL-28, 23.6 µM (inactive); in the assay with A498 it was > 43.6 µM (inactive); in the assay with Malme-3M, > 89.9 µM (inactive). Further, the GI50 in the assay on RXF 393 is 18.1 µM (inactive); in the assay on A549, > 60 µM (inactive); with HOP-62 it was > 100 µM (inactive); in the assay with ACHN, 71.1 µM (inactive); in the assay on SF-295, 46 µM (inactive); with HL-60, 20.6 µM (inactive). Besides, the GI50 in the assay with SF-268 was 33.3 µM (inactive); in the assay with UACC-62, 30.2 µM (inactive); in the assay with SK-MEL-2 it was > 100 µM (inactive); in the assay with SW-620, 19.4 µM (inactive); with UACC-257 it was 23.9 µM (inactive); in the assay with SR, 22.7 µM (inactive).

On to `CCC1(CN(C)C)CC/C(=C\c2ccc(OC)c(OC)c2)C1=O` (configuration not stated), for which the GI50 in the assay on OVCAR-3 was 97.9 µM (inactive); with SNB-19 it was > 100 µM (inactive); in the assay with HT-29, 58.2 µM (inactive); with SK-MEL-28 it was > 100 µM (inactive); in the assay with A498, 88.7 µM (inactive); in the assay on Malme-3M, > 100 µM (inactive). The GI50 with RXF 393, in the assay on A549, with HOP-62, in the assay with ACHN, in the assay with SF-295 and in the assay with SF-268 was > 100 µM (inactive) in each case. Moreover, the GI50 is > 69.3 µM (inactive) in the assay on UACC-62; > 100 µM (inactive) in the assay on SK-MEL-2; > 100 µM (inactive) in the assay on SW-620; > 100 µM (inactive) with UACC-257; < 0.01 µM (active) in the assay with SR.

In the case of `O=C(NC1CCC[C@H]1OC(=O)c1ccccc1)c1ccccc1` (some centres not stated), the GI50 in the assay with OVCAR-3 is 16.2 µM (inactive); in the assay with SNB-19, > 100 µM (inactive); with HT-29, 39.7 µM (inactive); with SK-MEL-28, > 100 µM (inactive); in the assay with A498, 33.1 µM (inactive); with Malme-3M, 0.0489 µM (active). Also, the GI50 with RXF 393 was > 100 µM (inactive); with A549, 40.4 µM (inactive); with ACHN, > 10 µM (inactive); in the assay on SF-295, > 100 µM (inactive); with HL-60, 32.2 µM (inactive); in the assay with SF-268 it was 86.5 µM (inactive). Also, the GI50 in the assay on UACC-62 is 50.9 µM (inactive); in the assay on SK-MEL-2, > 100 µM (inactive); in the assay with SW-620 it was > 100 µM (inactive); in the assay with UACC-257, > 100 µM (inactive); in the assay with SR, 47.2 µM (inactive).

For `O=C1NC(=O)C2C1N(Cc1ccccc1)C(=O)N2Cc1ccccc1` (configuration not stated), the GI50 in the assay on OVCAR-3, in the assay with SNB-19, with HT-29, in the assay on SK-MEL-28, with A498 and in the assay on Malme-3M was > 100 µM (inactive) in each case. The GI50 in the assay on RXF 393, in the assay on A549, with HOP-62, in the assay on ACHN, in the assay with SF-295 and in the assay on HL-60 was > 100 µM (inactive) in each case. Further, the GI50 with SF-268, in the assay on UACC-62, with SW-620, with UACC-257 and in the assay on SR was > 100 µM (inactive) in each case.

On to `COc1cc2c(c(OC)c1OC)-c1ccc(SC)c(=O)cc1[C@@H](NC(=O)c1ccc([N+](=O)[O-])cc1)CC2`, for which the GI50 in the assay on OVCAR-3 is < 0.0025 µM (active); in the assay with HT-29, 0.1 µM (active); with SK-MEL-28 it was 4.45 µM (inactive); in the assay with A498 it was 0.00632 µM (active); in the assay with Malme-3M, < 0.0025 µM (active); with RXF 393, < 0.0025 µM (active). Also, the GI50 in the assay on A549 is 0.025 µM (active); in the assay with HOP-62, < 0.0025 µM (active); in the assay on ACHN, 0.00555 µM (active); in the assay on SF-295 it was < 0.0025 µM (active); in the assay with HL-60 it was < 0.0025 µM (active); in the assay on SF-268 it was 0.0154 µM (active). Further, the GI50 with UACC-62 is 0.00853 µM (active); with SK-MEL-2, 0.0045 µM (active); in the assay with SW-620, < 0.0025 µM (active); with UACC-257, < 0.0025 µM (active); in the assay with SR, 0.00522 µM (active).

For the compound `CN(C)C1(C#N)CCC2(CC1)OCCO2`, the GI50 in the assay on OVCAR-3, in the assay on SNB-19, in the assay on HT-29, in the assay with SK-MEL-28, in the assay with A498 and with Malme-3M was > 100 µM (inactive) in each case. In addition, the GI50 in the assay with RXF 393, with A549, with HOP-62, in the assay with ACHN, in the assay on SF-295 and with HL-60 was > 100 µM (inactive) each time. For the same compound, the GI50 with SF-268, in the assay with UACC-62, with SK-MEL-2, in the assay on SW-620, with UACC-257 and in the assay with SR was > 100 µM (inactive) in each case.

Regarding `Cn1cnc([N+](=O)[O-])c1Sc1nc2cccnc2s1`, the GI50 in the assay on OVCAR-3 is 14.6 µM (inactive); in the assay with SNB-19 it was 78.9 µM (inactive); in the assay on HT-29 it was 21.3 µM (inactive); with SK-MEL-28, 16.5 µM (inactive); in the assay with A498 it was 40.9 µM (inactive); with Malme-3M it was 10.1 µM (inactive). Besides, the GI50 with RXF 393 was 17.8 µM (inactive); in the assay on A549, 34 µM (inactive); in the assay with HOP-62, > 100 µM (inactive); in the assay with ACHN, 24.5 µM (inactive); in the assay with SF-295, > 100 µM (inactive); with SF-268, 28.8 µM (inactive). The GI50 was 17.5 µM (inactive) in the assay with UACC-62, 12 µM (inactive) in the assay with SW-620, 13.3 µM (inactive) in the assay on UACC-257 and 16 µM (inactive) in the assay on SR.

`COC[C@@H](/N=C/N1CCc2cc(OC)c(OC)cc2[C@@H]1C)C(C)(C)C`: the GI50 is > 100 µM (inactive) in the assay with OVCAR-3; > 100 µM (inactive) with SNB-19; 79.8 µM (inactive) in the assay on HT-29; > 100 µM (inactive) with SK-MEL-28; > 100 µM (inactive) with Malme-3M; > 100 µM (inactive) in the assay on RXF 393. For the same compound, the GI50 with A549, in the assay with HOP-62, with ACHN, in the assay on SF-295, with HL-60 and in the assay with SF-268 was > 100 µM (inactive) throughout. The GI50 in the assay on UACC-62 was > 100 µM (inactive); in the assay on SK-MEL-2, 86.7 µM (inactive); in the assay on SW-620 it was > 100 µM (inactive); in the assay with UACC-257, > 100 µM (inactive); in the assay on SR, > 100 µM (inactive).

As to `CC(=O)C1(O)CCC2(O)C3(O)CC=C4CC(O)CCC4(C)C3CC(OC(=O)c3ccc(O)cc3)C12C.COC1CC(OC2C(C)OC(OC3C(C)OC(OC4CCC5(C)C(=CCC6(O)C5CC(OC(=O)c5ccc(O)cc5)C5(C)C(O)(C(C)=O)CCC65O)C4)CC3OC)CC2OC)OC(C)C1O` (configuration not stated), the GI50 with OVCAR-3 was 20.3 µM (inactive); with SNB-19, 33.6 µM (inactive); in the assay with HT-29 it was 31.4 µM (inactive); in the assay with SK-MEL-28, 29 µM (inactive); in the assay on Malme-3M it was 25.1 µM (inactive); with RXF 393, 44.4 µM (inactive). The GI50 with A549 is 30.5 µM (inactive); in the assay with HOP-62, 31.6 µM (inactive); with ACHN, 30.1 µM (inactive); with SF-295 it was 36 µM (inactive); in the assay on HL-60 it was 20.7 µM (inactive); in the assay on SF-268, 30.6 µM (inactive). Further, the GI50 is 23.4 µM (inactive) in the assay on UACC-62; 20.4 µM (inactive) in the assay on SK-MEL-2; 42.1 µM (inactive) in the assay on SW-620; 23.4 µM (inactive) in the assay on UACC-257; 25.8 µM (inactive) in the assay on SR.
